Entries after “also recorded” stand apart in the source; their conditions may differ.
Columns and labels:
[1] = system: 24 kinase targets associated with B-cell malignancy signaling cascades; test: HotSpot profile across the panel; format: biochemical
[2] = reported values; ref not given; cited from earlier work
OCI-Ly10 cells = test: Pairwise 10 × 10 matrix combination with venetoclax, Cell Titer Glo viability; settings: for synergistic cell killing when combined with venetoclax: ΔBlissSum
HBL1 cells = test: as above; settings: venetoclax 1000 nM to 3.9 nM
REC-1 cells = test: as above; settings: venetoclax 10000 nM to 39 nM

Compound | off-target profile across the 24 kinase panel [1] | fraction unbound (FU) [2] [% FU] | synergistic cell killing when combined with venetoclax (OCI-Ly10 cells) | further results
CC#CC(=O)N1CCC[C@H]1c1nc(-c2ccc(C(=O)Nc3ccccn3)cc2)c2c(N)nccn12 [Acalabrutinib] | most selective; also recorded: remarkably free of any additional off target activity | 2.5 | more focal in nature | 
CC#CC(=O)N[C@H]1CCCN(c2c(F)cc(C(N)=O)c3[nH]c(C)c(C)c23)C1 [Branebrutinib] | remarkably free of any additional off target activity | 1.2 |  | 
C=CC(=O)N1CCC(CNc2ncnc(N)c2-c2ccc(Oc3ccccc3)cc2)CC1 [Evobrutinib] | remarkably free of any additional off target activity |  |  | 
C[C@H]1CN(C2COC2)CCN1c1ccc(Nc2cc(-c3ccnc(N4CCn5c(cc6c5CC(C)(C)C6)C4=O)c3CO)cn(C)c2=O)nc1 [Fenebrutinib] | most selective; also recorded: remarkably free of any additional off target activity |  |  | 
C=CC(=O)N1CCC[C@@H](n2nc(-c3ccc(Oc4ccccc4)cc3)c3c(N)ncnc32)C1 [Ibrutinib] | most promiscuous beyond BMX and BLK |  |  | 
C=CC(=O)Nc1cccc(Oc2nc(Nc3ccc(N4CCN(C)CC4)cc3)nc3ccoc23)c1 [Poseltinib] | most promiscuous beyond BMX and BLK |  | more focal in nature | 
C=CC(=O)N(C)CCOc1c(N)ncnc1-c1cc(F)cc(NC(=O)c2ccc(C3CC3)cc2F)c1C [Remibrutinib] | most selective; also recorded: remarkably free of any additional off target activity |  | similar, broad synergistic cell killing across multiple concentration ranges | 
CC(C)(/C=C(\C#N)C(=O)N1CCC[C@@H](n2nc(-c3ccc(Oc4ccccc4)cc3F)c3c(N)ncnc32)C1)N1CCN(C2COC2)CC1 [Rilzabrutinib] | remarkably free of any additional off target activity |  | similar, broad synergistic cell killing across multiple concentration ranges | 
CC#CC(=O)N1CC[C@@H](n2c(=O)n(-c3ccc(Oc4ccccc4)cc3)c3c(N)ncnc32)C1 [Tirabrutinib] | most selective; also recorded: remarkably free of any additional off target activity | 8.3 |  | 
CC1(C)CCC(CN2CCN(c3ccc(C(=O)NS(=O)(=O)c4ccc(NCC5CCOCC5)c([N+](=O)[O-])c4)c(Oc4cnc5[nH]ccc5c4)c3)CC2)=C(c2ccc(Cl)cc2)C1 [Venetoclax] |  |  |  | single agent activity (cytotoxicity) (HBL1 cells): no single agent activity; single agent activity (cytotoxicity) (REC-1 cells): no single agent activity; single agent activity (cytotoxicity) (OCI-Ly10 cells; venetoclax 1000 nM to 3.9 nM): no single agent activity
C=CC(=O)N1CCC([C@@H]2CCNc3c(C(N)=O)c(-c4ccc(Oc5ccccc5)cc4)nn32)CC1 [Zanubrutinib] | most promiscuous beyond BMX and BLK | 6 | similar, broad synergistic cell killing across multiple concentration ranges | 

— paper PMC12707263 (ACS Pharmacology & Translational Science, 2025)
